This passage reports IC50 and remaining binding results from PMC7385619, “A triple action CDK4/6-PI3K-BET inhibitor with augmented cancer cell cytotoxicity” (Cell Discovery, 2020).

One assay addresses T1, CDK9 (Homo sapiens, UniProt P50750).
T1 construct: purchased Reaction Biology
In words: In vitro kinase assay, CDK9. Format: biochemical. To be noted: Fig. 1b; italicized values from the literature (italics not visible).

The target of assay [1] is T2, kinome (kinase panel) (Homo sapiens, UniProt Q8TD19).
T2 construct: purchased Eurofins DiscoverX
In words: KINOMEscan assay (Eurofins DiscoverX). Format: binding. Conditions: NEK9; 1000 nM; read-out: Percent Control.

Assay [2] deals with T3, kinome (kinase panel) (Homo sapiens, UniProt Q08345).
T3 construct: purchased Eurofins DiscoverX
In words: KINOMEscan assay (Eurofins DiscoverX). Format: binding. To be noted: DDR1; 1000 nM; read-out: Percent Control.

Assay [3] addresses T4, kinome (kinase panel) (Homo sapiens, UniProt P08581, M1250T).
T4 construct: purchased Eurofins DiscoverX
In words: KINOMEscan assay (Eurofins DiscoverX). Format: binding. Conditions: […]; 1000 nM; read-out: Percent Control.

The target of assay [4] is T5, kinome (kinase panel) (Homo sapiens, UniProt Q13546).
T5 construct: purchased Eurofins DiscoverX
In words: KINOMEscan assay (Eurofins DiscoverX). Format: binding. To be noted: RIPK1; 1000 nM; read-out: Percent Control.

The target of assay [5] is T6, kinome (kinase panel) (Homo sapiens, UniProt P49336).
T6 construct: purchased Eurofins DiscoverX
In words: KINOMEscan assay (Eurofins DiscoverX). Format: binding. To be noted: CDK8; 1000 nM; read-out: Percent Control.

In assay [6] the target is T7, kinome (kinase panel) (Homo sapiens, UniProt P10721, D816H).
T7 construct: purchased Eurofins DiscoverX
In words: KINOMEscan assay (Eurofins DiscoverX). Format: binding. To be noted: […]; 1000 nM; read-out: Percent Control.

For assay [7], the target named is T8, kinome (kinase panel) (Homo sapiens, UniProt O15075).
T8 construct: purchased Eurofins DiscoverX
In words: KINOMEscan assay (Eurofins DiscoverX). Format: binding. To be noted: DCAMKL1 (Entrez DCLK1); 1000 nM; read-out: Percent Control.

In assay [8] the target is T9, kinome (kinase panel) (Homo sapiens, UniProt Q02763).
T9 construct: purchased Eurofins DiscoverX
In words: KINOMEscan assay (Eurofins DiscoverX). Format: binding. To be noted: TIE2 (TEK); 1000 nM; read-out: Percent Control.

Assay [9] addresses T10, kinome (kinase panel) (Homo sapiens, UniProt Q16620).
T10 construct: purchased Eurofins DiscoverX
In words: KINOMEscan assay (Eurofins DiscoverX). Format: binding. Conditions: TRKB (NTRK2); 1000 nM; read-out: Percent Control.

The target of assay [10] is T11, kinome (kinase panel) (Homo sapiens, UniProt Q9NRH2).
T11 construct: purchased Eurofins DiscoverX
In words: KINOMEscan assay (Eurofins DiscoverX). Format: binding. Conditions: SNRK; 1000 nM; read-out: Percent Control.

Assay [11] has as its target T12, kinome (kinase panel) (Homo sapiens, UniProt P49674).
T12 construct: purchased Eurofins DiscoverX
In words: KINOMEscan assay (Eurofins DiscoverX). Format: binding. To be noted: CSNK1E; 1000 nM; read-out: Percent Control.

Assay [12] addresses T13, kinome (kinase panel) (Homo sapiens, UniProt P30530).
T13 construct: purchased Eurofins DiscoverX
In words: KINOMEscan assay (Eurofins DiscoverX). Format: binding. To be noted: AXL; 1000 nM; read-out: Percent Control.

The target of assay [13] is T14, kinome (kinase panel) (Homo sapiens, UniProt P42336, H1047L).
T14 construct: purchased Eurofins DiscoverX
In words: KINOMEscan assay (Eurofins DiscoverX). Format: binding. Conditions: read-out: Percent Control.

The target of assay [14] is T15, kinome (kinase panel) (Homo sapiens, UniProt P08631).
T15 construct: purchased Eurofins DiscoverX
In words: KINOMEscan assay (Eurofins DiscoverX). Conditions: HCK; 1000 nM; read-out: Percent Control. Format: binding.

The target in assay [15] is T16, kinome (kinase panel) (Homo sapiens, UniProt Q86V86).
T16 construct: purchased Eurofins DiscoverX
In words: KINOMEscan assay (Eurofins DiscoverX). Format: binding. To be noted: PIM3; 1000 nM; read-out: Percent Control.

Assay [16] deals with T17, kinome (kinase panel) (Homo sapiens, UniProt Q9HAZ1).
T17 construct: purchased Eurofins DiscoverX
In words: KINOMEscan assay (Eurofins DiscoverX). Format: binding. To be noted: CLK4; 1000 nM; read-out: Percent Control.

In assay [17] the target is T18, kinome (kinase panel) (Homo sapiens, UniProt Q04771).
T18 construct: purchased Eurofins DiscoverX
In words: KINOMEscan assay (Eurofins DiscoverX). Format: binding. Conditions: ACVR1; 1000 nM; read-out: Percent Control.

In assay [18] the target is T19, kinome (kinase panel) (Homo sapiens, UniProt Q9C098).
T19 construct: purchased Eurofins DiscoverX
In words: KINOMEscan assay (Eurofins DiscoverX). Format: binding. To be noted: DCAMKL3 (Entrez DCLK3); 1000 nM; read-out: Percent Control.

Assay [19] deals with T20, kinome (kinase panel) (Homo sapiens, UniProt Q9H1R3).
T20 construct: purchased Eurofins DiscoverX
In words: KINOMEscan assay (Eurofins DiscoverX). Format: binding. Conditions: MYLK2; 1000 nM; read-out: Percent Control.

For assay [20], the target named is T21, kinome (kinase panel) (Homo sapiens, UniProt Q16566).
T21 construct: purchased Eurofins DiscoverX
In words: KINOMEscan assay (Eurofins DiscoverX). Conditions: CAMK4; 1000 nM; read-out: Percent Control. Format: binding.

Assay [21] concerns the target T22, kinome (kinase panel) (Homo sapiens, UniProt P52333).
T22 construct: purchased Eurofins DiscoverX
In words: KINOMEscan assay (Eurofins DiscoverX). Format: binding. Conditions: JAK3(JH1domain-catalytic); 1000 nM; read-out: Percent Control.

The target in assay [22] is T23, kinome (kinase panel) (Homo sapiens, UniProt P10721, V559D).
T23 construct: purchased Eurofins DiscoverX
In words: KINOMEscan assay (Eurofins DiscoverX). Format: binding. To be noted: […]; 1000 nM; read-out: Percent Control.

The target of assay [23] is T24, kinome (kinase panel) (Homo sapiens, UniProt P20794).
T24 construct: purchased Eurofins DiscoverX
In words: KINOMEscan assay (Eurofins DiscoverX). Format: binding. Conditions: MAK; 1000 nM; read-out: Percent Control.

Some results are limits rather than exact numbers.

T13 sequence (P30530 26-894): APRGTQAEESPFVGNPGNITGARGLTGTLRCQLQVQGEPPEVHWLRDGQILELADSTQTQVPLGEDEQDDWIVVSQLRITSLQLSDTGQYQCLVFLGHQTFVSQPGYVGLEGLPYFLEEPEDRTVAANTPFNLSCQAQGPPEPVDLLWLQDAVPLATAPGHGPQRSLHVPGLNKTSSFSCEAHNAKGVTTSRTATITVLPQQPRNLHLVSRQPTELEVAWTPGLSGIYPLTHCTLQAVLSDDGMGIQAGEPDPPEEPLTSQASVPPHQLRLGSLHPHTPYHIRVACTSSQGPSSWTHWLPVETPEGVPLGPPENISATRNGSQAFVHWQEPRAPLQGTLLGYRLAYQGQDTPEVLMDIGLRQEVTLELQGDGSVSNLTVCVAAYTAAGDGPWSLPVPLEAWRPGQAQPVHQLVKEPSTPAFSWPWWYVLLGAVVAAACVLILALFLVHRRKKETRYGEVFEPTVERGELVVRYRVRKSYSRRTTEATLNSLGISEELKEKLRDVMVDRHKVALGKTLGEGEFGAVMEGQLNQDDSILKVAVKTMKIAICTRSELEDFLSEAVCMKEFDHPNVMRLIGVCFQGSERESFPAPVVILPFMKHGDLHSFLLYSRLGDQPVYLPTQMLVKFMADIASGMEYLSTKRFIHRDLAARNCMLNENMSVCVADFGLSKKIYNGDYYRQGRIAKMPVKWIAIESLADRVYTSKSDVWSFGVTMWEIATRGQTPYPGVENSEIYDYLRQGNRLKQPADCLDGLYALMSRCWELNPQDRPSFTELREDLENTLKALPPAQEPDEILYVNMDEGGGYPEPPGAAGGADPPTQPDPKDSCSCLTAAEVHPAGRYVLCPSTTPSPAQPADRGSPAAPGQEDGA
T4 sequence (P08581 25-1390 M1250T): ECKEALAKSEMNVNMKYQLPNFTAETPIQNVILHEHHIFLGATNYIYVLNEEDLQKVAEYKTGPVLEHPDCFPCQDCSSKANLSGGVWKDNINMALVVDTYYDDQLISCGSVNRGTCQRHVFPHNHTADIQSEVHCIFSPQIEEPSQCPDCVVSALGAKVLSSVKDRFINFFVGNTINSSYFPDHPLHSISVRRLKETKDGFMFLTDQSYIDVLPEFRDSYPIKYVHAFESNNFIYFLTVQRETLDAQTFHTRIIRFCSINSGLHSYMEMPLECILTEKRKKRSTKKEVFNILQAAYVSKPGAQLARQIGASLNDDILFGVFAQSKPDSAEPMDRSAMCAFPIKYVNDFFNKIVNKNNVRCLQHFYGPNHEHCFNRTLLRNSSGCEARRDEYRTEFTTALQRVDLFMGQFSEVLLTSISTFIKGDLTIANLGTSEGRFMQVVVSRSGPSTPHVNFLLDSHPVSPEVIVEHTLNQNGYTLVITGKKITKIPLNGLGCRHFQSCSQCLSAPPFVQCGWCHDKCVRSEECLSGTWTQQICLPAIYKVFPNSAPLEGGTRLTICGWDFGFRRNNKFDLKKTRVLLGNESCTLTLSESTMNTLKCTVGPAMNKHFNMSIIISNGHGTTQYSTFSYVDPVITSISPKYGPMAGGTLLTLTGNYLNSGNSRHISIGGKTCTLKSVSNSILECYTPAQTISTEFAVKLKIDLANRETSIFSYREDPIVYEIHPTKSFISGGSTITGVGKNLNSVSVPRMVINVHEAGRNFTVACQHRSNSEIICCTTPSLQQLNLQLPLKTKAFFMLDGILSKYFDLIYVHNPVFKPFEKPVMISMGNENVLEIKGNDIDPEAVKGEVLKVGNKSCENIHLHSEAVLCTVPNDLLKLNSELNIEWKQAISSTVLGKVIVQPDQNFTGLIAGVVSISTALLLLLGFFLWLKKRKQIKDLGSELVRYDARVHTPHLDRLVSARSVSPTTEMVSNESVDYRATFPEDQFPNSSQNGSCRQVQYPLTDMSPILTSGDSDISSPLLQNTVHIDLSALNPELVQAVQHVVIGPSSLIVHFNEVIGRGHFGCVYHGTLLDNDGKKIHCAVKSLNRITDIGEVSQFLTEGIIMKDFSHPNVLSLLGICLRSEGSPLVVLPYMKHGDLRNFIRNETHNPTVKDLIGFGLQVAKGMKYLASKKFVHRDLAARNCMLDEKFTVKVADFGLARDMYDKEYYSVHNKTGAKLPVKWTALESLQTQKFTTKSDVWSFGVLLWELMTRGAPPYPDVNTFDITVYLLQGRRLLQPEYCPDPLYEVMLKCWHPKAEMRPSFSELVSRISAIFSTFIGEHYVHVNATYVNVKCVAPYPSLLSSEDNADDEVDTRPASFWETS
T19 sequence (Q9C098 whole entry): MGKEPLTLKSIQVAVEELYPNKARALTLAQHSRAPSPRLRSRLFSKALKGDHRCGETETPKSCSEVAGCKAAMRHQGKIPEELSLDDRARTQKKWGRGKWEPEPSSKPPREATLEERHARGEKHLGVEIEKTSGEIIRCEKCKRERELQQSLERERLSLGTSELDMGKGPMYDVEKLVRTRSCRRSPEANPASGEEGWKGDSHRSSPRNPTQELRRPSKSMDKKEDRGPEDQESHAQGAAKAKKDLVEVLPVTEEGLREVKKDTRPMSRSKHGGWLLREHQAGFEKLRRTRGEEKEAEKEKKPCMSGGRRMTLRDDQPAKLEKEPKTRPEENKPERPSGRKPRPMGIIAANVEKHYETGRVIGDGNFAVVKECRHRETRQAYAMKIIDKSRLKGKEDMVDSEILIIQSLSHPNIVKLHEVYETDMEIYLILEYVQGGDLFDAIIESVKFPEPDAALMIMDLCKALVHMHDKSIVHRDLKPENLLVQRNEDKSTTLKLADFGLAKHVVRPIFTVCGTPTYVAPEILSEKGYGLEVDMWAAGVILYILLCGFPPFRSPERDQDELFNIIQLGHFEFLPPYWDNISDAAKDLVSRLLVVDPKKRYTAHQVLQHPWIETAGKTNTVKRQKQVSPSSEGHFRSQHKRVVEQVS
T5 sequence (Q13546 whole entry): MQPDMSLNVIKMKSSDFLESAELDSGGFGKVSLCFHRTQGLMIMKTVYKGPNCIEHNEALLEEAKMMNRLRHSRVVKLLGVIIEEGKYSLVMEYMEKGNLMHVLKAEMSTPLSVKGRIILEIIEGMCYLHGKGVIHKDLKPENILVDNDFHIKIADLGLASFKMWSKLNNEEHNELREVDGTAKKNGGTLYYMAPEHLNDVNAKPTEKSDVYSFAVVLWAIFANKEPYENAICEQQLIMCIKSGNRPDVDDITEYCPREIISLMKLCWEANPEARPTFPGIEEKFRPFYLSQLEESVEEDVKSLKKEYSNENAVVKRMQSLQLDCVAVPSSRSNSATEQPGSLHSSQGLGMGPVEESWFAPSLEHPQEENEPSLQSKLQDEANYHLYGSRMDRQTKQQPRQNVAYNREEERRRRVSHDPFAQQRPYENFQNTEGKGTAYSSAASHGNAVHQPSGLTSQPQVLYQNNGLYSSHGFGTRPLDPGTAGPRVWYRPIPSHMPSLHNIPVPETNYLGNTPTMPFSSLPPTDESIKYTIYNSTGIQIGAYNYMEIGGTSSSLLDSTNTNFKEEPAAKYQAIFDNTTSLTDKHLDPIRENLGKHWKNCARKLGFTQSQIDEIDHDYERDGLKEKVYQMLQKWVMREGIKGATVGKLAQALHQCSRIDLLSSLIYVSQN
T7 sequence (P10721 26-976 D816H): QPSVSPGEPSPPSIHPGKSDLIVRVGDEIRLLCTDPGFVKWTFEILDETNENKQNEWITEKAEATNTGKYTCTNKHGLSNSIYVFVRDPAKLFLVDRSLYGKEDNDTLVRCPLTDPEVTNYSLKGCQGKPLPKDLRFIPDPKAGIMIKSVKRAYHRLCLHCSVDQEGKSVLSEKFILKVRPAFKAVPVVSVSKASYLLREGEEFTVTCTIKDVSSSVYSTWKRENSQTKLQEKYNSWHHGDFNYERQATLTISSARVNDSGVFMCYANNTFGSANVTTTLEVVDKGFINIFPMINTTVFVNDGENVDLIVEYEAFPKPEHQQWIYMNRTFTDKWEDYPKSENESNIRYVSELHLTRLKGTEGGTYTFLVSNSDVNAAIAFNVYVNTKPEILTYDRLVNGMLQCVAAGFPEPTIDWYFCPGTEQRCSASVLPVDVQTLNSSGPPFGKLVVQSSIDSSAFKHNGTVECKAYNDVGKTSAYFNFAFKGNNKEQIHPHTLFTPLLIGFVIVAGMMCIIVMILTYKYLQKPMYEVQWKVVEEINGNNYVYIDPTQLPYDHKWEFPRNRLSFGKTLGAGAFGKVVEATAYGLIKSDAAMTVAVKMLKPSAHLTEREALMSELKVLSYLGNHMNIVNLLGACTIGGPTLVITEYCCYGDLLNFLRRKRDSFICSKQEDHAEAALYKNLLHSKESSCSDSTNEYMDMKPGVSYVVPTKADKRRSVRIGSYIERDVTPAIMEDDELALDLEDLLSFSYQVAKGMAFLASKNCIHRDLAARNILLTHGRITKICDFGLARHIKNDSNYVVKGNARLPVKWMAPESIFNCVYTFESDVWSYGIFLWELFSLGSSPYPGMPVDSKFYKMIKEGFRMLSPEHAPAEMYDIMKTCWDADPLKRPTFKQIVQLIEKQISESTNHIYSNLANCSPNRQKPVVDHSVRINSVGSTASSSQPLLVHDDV
T23 sequence (P10721 26-976 V559D): as the sequence (P10721 26-976 D816H) above, with V534D, H791D counted along it

A word on the IC50: it is the midpoint of a concentration-inhibition curve. A low value points to greater potency. Take `CN(C)C(=O)c1cc2cnc(Nc3ccc(-c4csc5c(=O)cc(N6CCOCC6)oc45)cc3)nc2n1C1CCCC1` [SRX3177]: at CDK9, the IC50 was less than 2 nM. Besides, the remaining binding at 1 µM on kinome (kinase panel) [1] was 100%; on kinome (kinase panel) [2], 72%; at kinome (kinase panel) [3] it was 86%; at kinome (kinase panel) [4], 96%; at kinome (kinase panel) [5], 90%; on kinome (kinase panel) [6], 28%. In addition, the remaining binding at 1 µM on kinome (kinase panel) [7] was found to be 51%; on kinome (kinase panel) [8], 100%; at kinome (kinase panel) [9], 40%; on kinome (kinase panel) [10], 82%; at kinome (kinase panel) [11], 63%; at kinome (kinase panel) [12] it was 89%. In addition, the remaining binding at 1 µM on kinome (kinase panel) [13] amounted to 41%; at kinome (kinase panel) [14], 100%; at kinome (kinase panel) [15], 78%; on kinome (kinase panel) [16], 100%; at kinome (kinase panel) [17], 84%; on kinome (kinase panel) [18], 100%. Further, the remaining binding at 1 µM on kinome (kinase panel) [19] came out at 97%; at kinome (kinase panel) [20], 100%; on kinome (kinase panel) [21], 13%; on kinome (kinase panel) [22] it was 49%; on kinome (kinase panel) [23], 87%.
